The supplement of paper PMC11061612

Columns and labels:
Experiment in all cases: combination Emax (second highest fraction inhibited in the dose matrix, 72 h); higher = more inhibition; extreme values may be limits of the assay
[1] = test system: HO-1-u-1 (Oral Cavity Carcinoma)
Method in brief: (§1)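 Cell lines in DMEM/F12 or RPMI with 10% FBS were plated in 1536-well plates, held 24 hours at 37°C, 5% CO2, then given two-drug dose matrices for 72 hours (DMSO typically 0.2%). Viability was read by CellTiter-Glo 2.0 luminescence and scaled as inhibition from 0 (vehicle wells) to 1 (blank wells). Combination Emax is the second-highest inhibition in the matrix; Bliss excess is observed combination effect minus expected EA + EB − EA·EB, EA and EB being single-agent effects.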

[2] = test system: OC-314 (Ovarian Carcinoma)
Method in brief: as §1

[3] = test system: EN (Endometrial Carcinoma)
Method in brief: as §1

[4] = test system: LoVo (Colorectal Carcinoma)
Method in brief: as §1

[5] = test system: Hs-633T (Other Solid Carcinomas)
Method in brief: as §1

[6] = test system: MDA-MB-468 (Breast Carcinoma)
Method in brief: as §1

[7] = test system: CAPAN-1 (Pancreatic Carcinoma)
Method in brief: as §1

[8] = test system: SU-DHL-6 (B-Cell Non-Hodgkin's Lymphoma)
Method in brief: as §1

Mewo (Melanoma) = test system: Mewo (Melanoma)
Method in brief: as §1

[9] = test system: HARA (Squamous Cell Lung Carcinoma)
Method in brief: as §1

SH-4 (Melanoma) = test system: SH-4 (Melanoma)
Method in brief: as §1

[10] = test system: SW1116 (Colorectal Carcinoma)
Method in brief: as §1

[11] = test system: SW1271 (Small Cell Lung Carcinoma)
Method in brief: as §1

HMV-II (Melanoma) = test system: HMV-II (Melanoma)
Method in brief: as §1

[12] = test system: KARPAS-231 (B-Cell Non-Hodgkin's Lymphoma)
Method in brief: as §1

[13] = test system: CAL-51 (Breast Carcinoma)
Method in brief: as §1

COLO-829 (Melanoma) = test system: COLO-829 (Melanoma)
Method in brief: as §1

[14] = test system: 639-V (Bladder Carcinoma)
Method in brief: as §1

[15] = test system: LB771-HNC (Head and Neck Carcinoma)
Method in brief: as §1

[16] = test system: MHH-PREB-1 (B-Cell Non-Hodgkin's Lymphoma)
Method in brief: as §1

| SMILES | combination Emax [1] | combination Emax [2] | combination Emax [3] | combination Emax [4] | combination Emax [5] | combination Emax [6] | combination Emax [7] | combination Emax [8] | combination Emax (Mewo (Melanoma)) | combination Emax [9] | combination Emax (SH-4 (Melanoma)) | combination Emax [10] | combination Emax [11] | combination Emax (HMV-II (Melanoma)) | combination Emax [12] | combination Emax [13] | combination Emax (COLO-829 (Melanoma)) | combination Emax [14] | combination Emax [15] | combination Emax [16] |
| --- | --- | --- | --- | --- | --- | --- | --- | --- | --- | --- | --- | --- | --- | --- | --- | --- | --- | --- | --- | --- |
| C=CCn1c(=O)c2cnc(Nc3ccc(N4CCN(C)CC4)cc3)nc2n1-c1cccc(C(C)(C)O)n1 [AZD1775] + CCc1c2c(nc3ccc(O)cc13)-c1cc3c(c(=O)n1C2)COC(=O)[C@]3(O)CC [SN-38] (first compound max 1 µM, partner max 0.3 µM) | 0.869 | 0.996 | 0.699 | 0.818 | 0.868 | 0.828 | 0.799 | 1 | 0.676 | 0.943 | 0.607 | 0.43 | 0.62 | 0.634 |  |  |  |  |  |  |
| CN(CCO)CC[C@H](CSc1ccccc1)Nc1ccc(S(=O)(=O)NC(=O)c2ccc(N3CCC([C@@H](O)c4ccccc4-c4ccc(Cl)cc4)CC3)cc2)cc1S(=O)(=O)C(F)(F)F [AZD4320] + C=CCn1c(=O)c2cnc(Nc3ccc(N4CCN(C)CC4)cc3)nc2n1-c1cccc(C(C)(C)O)n1 [AZD1775] (first compound max 1 µM, partner max 1 µM) | 0.897 | 0.619 | 0.567 | 0.838 | 0.856 | 0.799 | 0.732 | 1 | 0.548 | 0.887 | 0.5 | 0.264 | 0.814 | 0.47 | 1 | 0.907 | 0.265 | 0.377 | 0.644 |  |
| COc1nnc2ccc(N3CCC(c4ccc(OCCN5CCN(C)C(=O)[C@H]5C)cc4)CC3)nn12 [AZD5153] + C=CCn1c(=O)c2cnc(Nc3ccc(N4CCN(C)CC4)cc3)nc2n1-c1cccc(C(C)(C)O)n1 [AZD1775] (first compound max 1 µM, partner max 1 µM) | 0.735 | 0.912 | 0.525 | 0.656 | 0.798 |  | 0.549 | 0.941 | 0.645 | 0.928 | 0.65 | 0.397 | 0.649 | 0.709 | 0.978 | 0.956 | 0.283 | 0.714 | 0.627 | 0.825 |
| COc1nnc2ccc(N3CCC(c4ccc(OCCN5CCN(C)C(=O)[C@H]5C)cc4)CC3)nn12 [AZD5153] + CC1(C)CCC(CN2CCN(c3ccc(C(=O)NS(=O)(=O)c4ccc(NCC5CCOCC5)c([N+](=O)[O-])c4)c(Oc4cnc5[nH]ccc5c4)c3)CC2)=C(c2ccc(Cl)cc2)C1 [Venetoclax] (first compound max 1 µM, 7x7, partner max 1 µM) | 0.55 | 0.814 | 0.289 | 0.464 | 0.564 |  | 0.335 | 1 | 0.563 | 0.654 | 0.607 | 0.353 | 0.57 | 0.524 | 1 | 0.673 | 0.226 | 0.582 | 0.481 | 0.481 |
| COc1nnc2ccc(N3CCC(c4ccc(OCCN5CCN(C)C(=O)[C@H]5C)cc4)CC3)nn12 [AZD5153] + CCN(CCO)CCCOc1ccc2c(Nc3cc(CC(=O)Nc4cccc(F)c4)[nH]n3)ncnc2c1 [AZD2811] (first compound max 1 µM, 7x7, partner max 1 µM) | 0.578 | 0.884 | 0.454 | 0.627 | 0.746 |  | 0.353 | 0.903 | 0.593 | 0.679 | 0.613 | 0.397 | 0.534 | 0.588 | 0.514 | 0.807 | 0.3 | 0.681 | 0.519 | 0.514 |
| COc1nnc2ccc(N3CCC(c4ccc(OCCN5CCN(C)C(=O)[C@H]5C)cc4)CC3)nn12 [AZD5153] + C[C@@H]1COCCN1C2=NC(=NC(=C2)C3(CC3)[S@](=N)(=O)C)C4=C5C=CNC5=NC=C4 [AZD6738] (first compound max 1 µM, 7x7, partner max 10 µM) | 0.89 | 0.981 | 0.584 | 0.814 | 0.912 |  | 0.54 | 0.968 | 0.604 | 0.832 | 0.666 | 0.432 | 0.57 | 0.712 | 0.752 | 0.993 | 0.259 | 0.813 | 0.739 | 0.893 |
| COc1nnc2ccc(N3CCC(c4ccc(OCCN5CCN(C)C(=O)[C@H]5C)cc4)CC3)nn12 [AZD5153] + Cc1c2c(nn1C)CSCc1cc(n(C)n1)CSc1cc(c3ccccc3c1)OCCCc1c(C(=O)O)n(C)c3c-2c(Cl)ccc13 [AZD5991] (first compound max 1 µM, 7x7, partner max 1 µM) | 0.561 | 0.842 | 0.645 | 0.545 | 0.631 |  | 0.417 | 1 | 0.719 | 0.741 | 0.89 | 0.414 | 0.512 | 0.76 | 0.941 | 0.917 | 0.514 | 0.653 | 0.915 | 0.461 |
| COc1nnc2ccc(N3CCC(c4ccc(OCCN5CCN(C)C(=O)[C@H]5C)cc4)CC3)nn12 [AZD5153] + Cn1cnc2c(F)c(Nc3ccc(Br)cc3Cl)c(C(=O)NOCCO)cc21 [Selumetinib] (first compound max 1 µM, 7x7, partner max 10 µM) | 0.558 | 0.795 | 0.289 | 0.862 | 0.748 |  | 0.664 | 0.913 | 0.663 | 0.708 | 0.953 | 0.699 | 0.676 | 0.927 | 0 | 0.712 | 0.663 | 0.676 | 0.475 | 0.459 |
| Cc1c2c(nn1C)CSCc1cc(n(C)n1)CSc1cc(c3ccccc3c1)OCCCc1c(C(=O)O)n(C)c3c-2c(Cl)ccc13 [AZD5991] + CN(C)CCCOc1ccc(-c2ccc3ncc4c(c3c2)n(C2CCOCC2)c(=O)n4C)cn1 [AZD0156] (first compound max 1 µM, 7x7, partner max 1 µM) | 0.245 | 0.239 | 0.572 | 0.496 | 0.276 | 0.452 | 0.252 | 1 | 0.225 | 0.312 | 0.316 | 0.173 | 0.27 | 0.256 | 1 | 0.476 | 0.118 | 0.239 | 0.442 |  |
| CS(=O)(=O)CCNCc1ccc(-c2ccc3ncnc(Nc4ccc(OCc5cccc(F)c5)c(Cl)c4)c3c2)o1 [Lapatinib] + Cn1cnc2c(F)c(Nc3ccc(Br)cc3Cl)c(C(=O)NOCCO)cc21 [Selumetinib] (first compound max 10 µM, 7x7, partner max 10 µM) | 0.789 | 0.691 | 0.345 | 0.742 | 0.478 | 0.882 | 0.615 | 0.974 | 0.503 | 0.76 | 0.868 | 0.73 | 0.646 | 0.768 |  |  |  |  |  |  |
| CS(=O)(=O)CCNCc1ccc(-c2ccc3ncnc(Nc4ccc(OCc5cccc(F)c5)c(Cl)c4)c3c2)o1 [Lapatinib] + NC1(c2ccc(-c3nc4ccn5c(=O)[nH]nc5c4cc3-c3ccccc3)cc2)CCC1 [MK-2206] (first compound max 10 µM, 7x7, partner max 10 µM) | 0.943 | 0.873 | 0.512 | 0.713 | 0.905 | 0.959 | 0.331 | 1 | 0.521 | 0.953 | 0.901 | 0.627 | 0.739 | 0.904 |  |  | 0.311 |  |  |  |
| CCc1c2c(nc3ccc(O)cc13)-c1cc3c(c(=O)n1C2)COC(=O)[C@]3(O)CC [SN-38] + O=C(c1cc(Cc2n[nH]c(=O)c3ccccc23)ccc1F)N1CCN(C(=O)C2CC2)CC1 [Olaparib] (first compound max 0.3 µM, 7x7, partner max 10 µM) | 0.695 | 1 | 0.18 | 0.717 | 0.842 | 0.773 | 0.818 | 1 | 0.338 | 0.852 | 0.48 | 0.214 | 0.758 | 0.641 | 1 | 0.801 | 0.662 | 1 | 0.0947 |  |
| Cc1nc(-c2cn3c(n2)-c2ccc(-c4cnn(C(C)(C)C(N)=O)c4)cc2OCC3)n(C(C)C)n1 [Taselisib] + O=C(Nc1ccc2[nH]nc(-c3ccncc3)c2c1)[C@@H]1CCN(CC(=O)N2CCN(c3ccc(-c4ncccn4)cc3)CC2)C1 [SCH772984] (first compound max 10 µM, 7x7, partner max 5 µM) | 0.933 | 0.747 | 0.619 | 0.738 | 0.834 | 0.747 | 0.77 | 1 | 0.777 | 0.871 | 0.921 | 0.521 | 0.531 | 0.867 |  |  |  |  |  |  |
